In ChEMBL document CHEMBL4396865, “Current advances of triazole alcohols derived from fluconazole: Design, in vitro and in silico studies” (2019) one finds MIC80, Ratio and MIC data, which are given here for 13 compounds.

What all share (format): functional
Assay [1] has as its system Candida albicans. The assay can be described thus: Antifungal activity against Candida albicans. Particulars: Candida albicans.
Assay [2] deals with Candida parapsilosis. The assay can be described thus: Antifungal activity against Candida parapsilosis. Particulars: Lodderomyces parapsilosis.
For assay [3], the system named is Candida tropicalis. The assay can be described thus: Antifungal activity against Candida tropicalis. The settings on record: Candida tropicalis.
For assay [4], the system named is Kluyveromyces marxianus. The assay can be described thus: Antifungal activity against Candida kefyr. Particulars: Kluyveromyces marxianus.
Assay [5] relates to Cryptococcus neoformans. The assay can be described thus: Antifungal activity against Cryptococcus neoformans. Particulars: Cryptococcus neoformans.
The test system of assay [6] is Trichophyton rubrum. The assay can be described thus: Antifungal activity against Trichophyton rubrum. The settings on record: Trichophyton rubrum.
In assay [7] the test system is Aspergillus fumigatus. The assay can be described thus: Antifungal activity against Aspergillus fumigatus. Particulars: Aspergillus fumigatus.
Assay [8] concerns Candida albicans. The assay can be described thus: Antifungal activity against Candida albicans ATCC 76615 after 24 hrs by microbroth dilution method. Particulars: ATCC 76615, 24 h. For orientation: In broth dilution the organism is exposed to a series of concentrations in liquid medium.
Assay [9] relates to Candida albicans. The assay can be described thus: Potency index, ratio of fluconazole MIC to test compound MIC for Candida albicans.
Assay [10] relates to Candida albicans. The assay can be described thus: Antifungal activity against fluconalzole-susceptible Candida albicans after 24 hrs.
The test system of assay [11] is Candida parapsilosis. The assay can be described thus: Antifungal activity against fluconalzole-susceptible Candida parapsilosis after 24 hrs. The settings on record: Lodderomyces parapsilosis.
In assay [12] the test system is Candida albicans. The assay can be described thus: Antifungal activity against Candida albicans CA98001. The settings on record: Candida albicans, CA98001; read-out: MIC.
In assay [13] the test system is Candida albicans. The assay can be described thus: Antifungal activity against Candida albicans DSY735. The settings on record: Candida albicans, DSY735; read-out: MIC.
The subject of assay [14] is Candida albicans. The assay can be described thus: Antifungal activity against Candida albicans CAAL-74. The settings on record: Candida albicans, CAAL-74; read-out: MIC.
Assay [15] deals with Pichia kudriavzevii. The assay can be described thus: Antifungal activity against Candida krusei CK506. The settings on record: Pichia kudriavzevii, CK506; read-out: MIC.
Assay [16] deals with Pichia kudriavzevii. The assay can be described thus: Antifungal activity against Candida krusei CK8. Particulars: Pichia kudriavzevii, CK8; read-out: MIC.
Assay [17] relates to Nakaseomyces glabratus. The assay can be described thus: Antifungal activity against Candida glabrata CG468. The settings on record: Nakaseomyces glabratus, CG468; read-out: MIC.
For assay [18], the system named is Candida parapsilosis. The assay can be described thus: Antifungal activity against Candida parapsilosis CAPA1. Particulars: Lodderomyces parapsilosis, CAPA1; read-out: MIC.
The test system of assay [19] is Candida parapsilosis. The assay can be described thus: Antifungal activity against Candida parapsilosis CAPA2. Particulars: Lodderomyces parapsilosis, CAPA2; read-out: MIC.
Assay [20] concerns Aspergillus fumigatus. The assay can be described thus: Antifungal activity against Aspergillus fumigatus AF98003.

In brackets after ≈: the same amount, converted by molar mass.

As for `OC(CN1CCC(OCc2ccccc2)CC1)(Cn1cncn1)c1ccc(F)cc1F` (stereo not drawn), the MIC80 in assay [1], in assay [2], in [3], in assay [4], in assay [5] and in [6] was 0.01 to 0.56 µM (≈ 0.00428 to 0.24 µg/mL) in each case. The MIC80 in [7] and in assay [8] was 0.01 to 0.56 µM (≈ 0.00428 to 0.24 µg/mL) throughout. Besides, in assay [9], the Ratio amounted to 82.
Turning to `OC(CN1CCC(OCc2ccccc2Cl)CC1)(Cn1cncn1)c1ccc(F)cc1F` (stereo not drawn), the MIC80 in assay [1] is 0.01 µM (≈ 0.00463 µg/mL); in [2], 0.01 to 2.33 µM (≈ 0.00463 to 1.08 µg/mL); in assay [3], 0.01 to 2.33 µM (≈ 0.00463 to 1.08 µg/mL); in assay [4] it was 0.01 to 2.33 µM (≈ 0.00463 to 1.08 µg/mL); in assay [5], 0.01 to 2.33 µM (≈ 0.00463 to 1.08 µg/mL); in [6] it was 0.03 to 0.15 µM (≈ 0.0139 to 0.0694 µg/mL). The MIC80 in [7] lay in the range of 0.55 to 2.33 µM (≈ 0.255 to 1.08 µg/mL); in assay [8] it was 0.01 to 2.33 µM (≈ 0.00463 to 1.08 µg/mL). Besides, the Ratio in [9] was found to be 82.
Consider `OC(CN1CCC(OCc2ccc(Cl)cc2Cl)CC1)(Cn1cncn1)c1ccc(F)cc1F` (stereo not drawn), for which the MIC80 in assay [1] was 0.01 µM (≈ 0.00497 µg/mL); in [2] it was 0.01 to 2.33 µM (≈ 0.00497 to 1.16 µg/mL); in assay [3] it was 0.01 to 2.33 µM (≈ 0.00497 to 1.16 µg/mL); in assay [4] it was 0.01 to 2.33 µM (≈ 0.00497 to 1.16 µg/mL); in [5], 0.01 to 2.33 µM (≈ 0.00497 to 1.16 µg/mL); in assay [6], 0.03 to 0.15 µM (≈ 0.0149 to 0.0746 µg/mL). The MIC80 in [7] lay within 0.55 to 2.33 µM (≈ 0.274 to 1.16 µg/mL); in assay [8] it was 0.01 to 2.33 µM (≈ 0.00497 to 1.16 µg/mL). The Ratio in assay [9] was 82.
As to `OC(CN1CCC(OCc2ccc(Cl)c(Cl)c2)CC1)(Cn1cncn1)c1ccc(F)cc1F` (stereo not drawn), the MIC80 in assay [1] is 0.01 µM (≈ 0.00497 µg/mL); in assay [2] it was 0.01 to 2.33 µM (≈ 0.00497 to 1.16 µg/mL); in assay [3], 0.01 to 2.33 µM (≈ 0.00497 to 1.16 µg/mL); in [4] it was 0.01 to 2.33 µM (≈ 0.00497 to 1.16 µg/mL); in assay [5], 0.01 to 2.33 µM (≈ 0.00497 to 1.16 µg/mL); in [6], 0.03 to 0.15 µM (≈ 0.0149 to 0.0746 µg/mL). Moreover, the MIC80 in assay [7] was 0.55 to 2.33 µM (≈ 0.274 to 1.16 µg/mL); in [8] it was 0.01 to 2.33 µM (≈ 0.00497 to 1.16 µg/mL). The Ratio in assay [9] is 82.
On to `OC(CN1CCC(OCc2cccc(Cl)c2)CC1)(Cn1cncn1)c1ccc(F)cc1F` (stereo not drawn), for which the MIC80 in [1] is 0.01 µM (≈ 0.00463 µg/mL); in assay [2], 0.01 to 2.33 µM (≈ 0.00463 to 1.08 µg/mL); in [3], 0.01 to 2.33 µM (≈ 0.00463 to 1.08 µg/mL); in assay [4], 0.01 to 2.33 µM (≈ 0.00463 to 1.08 µg/mL); in assay [5], 0.01 to 2.33 µM (≈ 0.00463 to 1.08 µg/mL); in assay [6], 0.03 to 0.15 µM (≈ 0.0139 to 0.0694 µg/mL). The values for the MIC80 in assay [7] and in assay [8] were 0.55 to 2.33 µM (≈ 0.255 to 1.08 µg/mL) and 0.01 to 2.33 µM (≈ 0.00463 to 1.08 µg/mL), respectively. In [9], the Ratio came to 82.
As for `N#Cc1ccc(COC2CCN(CC(O)(Cn3cncn3)c3ccc(F)cc3F)CC2)cc1` (stereo not drawn), the MIC80 in assay [1] was 0.01 µM (≈ 0.00453 µg/mL); in [2], 0.01 to 2.33 µM (≈ 0.00453 to 1.06 µg/mL); in [3], 0.01 to 2.33 µM (≈ 0.00453 to 1.06 µg/mL); in assay [4], 0.01 to 2.33 µM (≈ 0.00453 to 1.06 µg/mL); in assay [5] it was 0.01 to 2.33 µM (≈ 0.00453 to 1.06 µg/mL); in assay [6], 0.03 to 0.15 µM (≈ 0.0136 to 0.068 µg/mL). Also, the MIC80 is 0.55 to 2.33 µM (≈ 0.249 to 1.06 µg/mL) in assay [7] and 0.01 to 2.33 µM (≈ 0.00453 to 1.06 µg/mL) in [8]. Further, in assay [9], the Ratio turned out to be 82.
For the compound `OC(CN1CCC(OCc2cccc(Br)c2)CC1)(Cn1cncn1)c1ccc(F)cc1F` (stereo not drawn), the MIC80 in [1], in assay [2], in assay [3], in [4], in [5] and in assay [6] was 0.01 to 0.56 µM (≈ 0.00507 to 0.284 µg/mL) in each case. Also, the MIC80 in assay [7] and in [8] was 0.01 to 0.56 µM (≈ 0.00507 to 0.284 µg/mL) in each case. For the same compound, the Ratio in [9] was determined as 82.
Turning to `OC(CN1CCC(OCc2ccccc2F)CC1)(Cn1cncn1)c1ccc(F)cc1F` (stereo not drawn), the MIC80 in [1], in [2], in assay [3], in [4], in [5] and in assay [6] was 0.01 to 0.56 µM (≈ 0.00446 to 0.25 µg/mL) in each case. Besides, the MIC80 in assay [7] and in [8] was 0.01 to 0.56 µM (≈ 0.00446 to 0.25 µg/mL) throughout. For the same compound, the Ratio in assay [9] is 82.
Consider `OC(CN1CCC(OCc2ccc(F)cc2)CC1)(Cn1cncn1)c1ccc(F)cc1F` (stereo not drawn), for which the MIC80 in assay [1] was 0.01 µM (≈ 0.00446 µg/mL); in assay [2] it was 0.01 to 2.33 µM (≈ 0.00446 to 1.04 µg/mL); in [3] it was 0.01 to 2.33 µM (≈ 0.00446 to 1.04 µg/mL); in [4], 0.01 to 2.33 µM (≈ 0.00446 to 1.04 µg/mL); in assay [5], 0.01 to 2.33 µM (≈ 0.00446 to 1.04 µg/mL); in [6] it was 0.03 to 0.15 µM (≈ 0.0134 to 0.067 µg/mL). The MIC80 is 0.55 to 2.33 µM (≈ 0.246 to 1.04 µg/mL) in [7] and 0.01 to 2.33 µM (≈ 0.00446 to 1.04 µg/mL) in assay [8]. Moreover, the Ratio in assay [9] was found to be 82.
For the compound `OC(Cn1cncn1)(Cn1cnc(SCc2ccc(F)cc2)n1)c1ccc(F)cc1F` (stereo not drawn), the minimum inhibitory concentration (MIC) in assay [10] and in [11] was 0.063 to 1 µg/mL (≈ 0.141 to 2.24 µM) throughout.
For the compound `CCCc1ccc(NS(=O)(=O)c2ccc(CN(C)CC(O)(Cn3cncn3)c3ccc(F)cc3F)cc2)cc1` (stereo not drawn), the minimum inhibitory concentration (MIC) in assay [12], in assay [13], in assay [14], in [15], in [16] and in assay [17] was 0.001 to 0.069 µg/mL (≈ 0.0018 to 0.124 µM) in each case. The minimum inhibitory concentration (MIC) in assay [18] is 0.001 to 0.069 µg/mL (≈ 0.0018 to 0.124 µM); in assay [19], 0.001 to 0.069 µg/mL (≈ 0.0018 to 0.124 µM); in assay [20], 0.767 to 3.57 µg/mL (≈ 1.38 to 6.42 µM).
For `OC(Cn1cncn1)(Cn1cnc(SCc2ccc(Br)cc2)n1)c1ccc(F)cc1F` (stereo not drawn), the MIC in assay [10] and in assay [11] was 0.063 to 1 µg/mL (≈ 0.124 to 1.97 µM) each time.
`CC(C)CNS(=O)(=O)c1ccc(CN(C)CC(O)(Cn2cncn2)c2ccc(F)cc2F)cc1` (stereo not drawn): the MIC in assay [12], in [13], in [14], in assay [15], in assay [16] and in assay [17] was 0.001 to 0.069 µg/mL (≈ 0.00203 to 0.14 µM) throughout. Also, the minimum inhibitory concentration (MIC) in [18] lay within 0.001 to 0.069 µg/mL (≈ 0.00203 to 0.14 µM); in assay [19] it was 0.001 to 0.069 µg/mL (≈ 0.00203 to 0.14 µM); in [20] it was 0.767 to 3.57 µg/mL (≈ 1.55 to 7.23 µM).

The MIC80 is an inhibitory concentration at the 80% level, which refers to growth in some studies and to a panel of isolates in others. Low values mean higher susceptibility, high ones lower susceptibility. What is called MIC is the lowest concentration found to suppress growth.
